In brackets after ≈: the same amount, converted by molar mass. Structures can show the parent of a compound that is named as a salt.

Assay [1] concerns influenza A virus (PR8 strain). Type of assay: in vivo. To be noted: 0.5 MTD in 10 ml buffered saline with virus, 1 hour at 37°C.
The test system of assay [2] is Bacillus subtilis ATCC 9466. Put plainly: Antibacterial activity, minimum inhibitory concentration. The settings on record: ATCC9466, 18 h, read-out: minimum inhibitory concentration, B. subtilis.
Procedure: (§1) The antibacterial activity of some of the 3H-1,5-benzodiazepines having the general formula I was tested on the following microorganisms:
(§2) Escherichia coli 100, Bacillus subtilis ATCC 9466, Micrococcus pyogenes SG-511, grown in Difco nutritive gelatin; Streptococcus pyogenes A 88 grown in Difco "Brain heart infusion agar" gelatin with 5 percent difibrinated Guinea pig blood.
(§3) The results were read after 18 hours incubation at 35°-37°C.
Assay [3] relates to Micrococcus pyogenes SG-511. Described as above. The settings on record: Staphylococcus aureus, SG511, 18 h, read-out: minimum inhibitory concentration, M. pyogenes.
Procedure: as §1, §2, §3
The test system of assay [4] is Streptococcus pyogenes A 88. The assay is described as above. The settings on record: A88, 18 h, read-out: minimum inhibitory concentration, S. pyogenes.
Procedure: as §1, §2, §3
The next assay relates to Escherichia coli 100. The assay is described as above. To be noted: Escherichia coli, 100, 18 h, read-out: minimum inhibitory concentration, B. coli.

Procedure for Escherichia coli 100: as §1, §2, §3

In the case of `C[N+]1(CCCSC2=Nc3ccccc3N=C(c3ccc(Sc4ccccc4)cc3)C2)CCCC1` [Compound 38, 2,gamma,N-pyrrolidinopropylthio-4,p-phenylthiophenyl-3H-1,5-benzodiazepine iodomethylate], the “APR8: difference between logarithms of EID95 of controls and of treated eggs” value (shortened to “APR8: difference between logarithms”) in assay [1] came out at 3. Further, the MIC in assay [2] was 10 µg/mL; in assay [3], 2.5 µg/mL; in assay [4], 10 µg/mL; in the assay on Escherichia coli 100, 160 µg/mL.
Turning to `CC[N+](C)(CC)CCCSC1=Nc2ccccc2N=C(c2ccc(Sc3ccccc3)cc2)C1` [Compound 40, 2,gamma,N-diethylaminopropylthio-4,p-phenylthiophenyl-3H-1,5-benzodiazepineiodomethylate], the “APR8: difference between logarithms” value in assay [1] is on record as 1. Besides, the MIC (in assay [2]; in assay [4]; in the assay with Escherichia coli 100) was 5 µg/mL in each case.
For the compound `C[N+]1(C)CCN(CCSC2=Nc3ccccc3N=C(c3ccc(Sc4ccccc4)cc3)C2)CC1` [Compound 35, 2,beta,N(N'-methyl)piperazinoethylthio-4,p-phenylthiophenyl-3H-1,5-benzodiazepine monoiodomethylate], in assay [1], the “APR8: difference between logarithms” value worked out at 2. Besides, in assay [2], the MIC worked out at 10 µg/mL.
For the compound `C[N+](C)(C)CCCSC1=Nc2ccccc2N=C(c2ccc(Sc3ccccc3)cc2)C1` [Compound 42, 2,gamma,N-dimethylaminopropylthio-4,p-phenylthiophenyl-3H-1,5-benzodiazepine iodomethylate], in assay [1], the “APR8: difference between logarithms” value turned out to be 3. The MIC in assay [2] turned out to be 40 µg/mL; with Escherichia coli 100, 80 µg/mL.
With `C[N+]1(CCSC2=Nc3ccccc3N=C(c3ccc(Sc4ccccc4)cc3)C2)CCOCC1` [Compound 50, 2,beta,N-morpholinoethylthio-4,p-phenylthiophenyl-3H-1,5-benzodiazepine iodomethylate], in assay [1], the “APR8: difference between logarithms” value is 2. For the same compound, the MIC worked out at 10 µg/mL in assay [2] and 160 µg/mL with Escherichia coli 100.
The corresponding values for `C[N+]1(CCSC2=Nc3ccccc3N=C(c3ccc(Sc4ccccc4)cc3)C2)CCCC1` [Compound 44, 2, beta,N-pyrrolidinoethylthio-4,p-phenylthiophenyl-3H-1,5-benzodiazepine iodomethylate] are 2, 40 µg/mL and 160 µg/mL.
Take `CN(C)CCCSC1=Nc2ccccc2N=C(c2ccc(Sc3ccccc3)cc2)C1` [Compound 41, 2,gamma,N-dimethylaminopropylthio-4,p-phenylthiophenyl-3H-1,5-benzodiazepine.HCl]: the “APR8: difference between logarithms” value in assay [1] is on record as over 3. For the same compound, the MIC in assay [2] came out at 10 µg/mL; in assay [4] it was 1.25 µg/mL.
On to `CCN(CC)CCCSC1=Nc2ccccc2N=C(c2ccc(Sc3ccccc3)cc2)C1` [Compound 39, 2,gamma,N-diethylaminopropylthio-4,p-phenylthiophenyl-3H-1,5-benzodiazepinecitrate], for which the “APR8: difference between logarithms” value in assay [1] worked out at 3. Also, the MIC in assay [2] came out at 10 µg/mL (≈ 21.1 µM).
The corresponding values for `CC[N+](CC)(CCSC1=Nc2ccccc2N=C(c2ccc(Sc3ccccc3)cc2)C1)Cc1ccccc1` [Compound 31, 2,beta,N-diethylaminoethylthio-4,p-phenylthio-phenyl-3H-1,5-benzodiazepine bromobenzylate] are over 3 and 10 µg/mL.
Regarding `C[N+]1(CCSC2=Nc3ccccc3N=C(c3ccc(Sc4ccccc4)cc3)C2)CCCCC1` [Compound 48, 2,beta,N-piperidinoethylthio-4,p-phenylthiophenyl-3H-1,5-benzodiazepine iodomethylate], the “APR8: difference between logarithms” value in assay [1] is over 4. The MIC in assay [2] stood at 10 µg/mL; with Escherichia coli 100 it was 80 µg/mL.
The corresponding values for `C[N+](C)(C)CCSC1=Nc2ccccc2N=C(c2ccc(Sc3ccccc3)cc2)C1` [Compound 46, 2,beta,N-dimethylaminoethylthio-4,p-phenylthiophenyl-3H-1,5-benzodiazepine iodomethylate] are 2, 20 µg/mL and 160 µg/mL.
Regarding `CC[N+](C)(CC)CCSC1=Nc2ccccc2N=C(c2ccc(Sc3ccccc3)cc2)C1` [Compound 30, 2,beta,N-diethylaminoethylthio-4,p-phenylthio-phenyl-3H-1,5-benzodiazepine iodomethylate], the “APR8: difference between logarithms” value in assay [1] came to 1. For the same compound, the MIC in assay [2] was 10 µg/mL.
The matching figures for `CN1CCN(CCSC2=Nc3ccccc3N=C(c3ccc(Sc4ccccc4)cc3)C2)CC1` [Compound 34, 2,beta,N(N'-methyl)piperazinoethylthio-4,p-phenylthiophenyl-3H-1,5-benzodiazepine citrate]: over 3 and 40 µg/mL.
`CCN(CC)CCSC1=Nc2ccccc2N=C(c2ccc(C)cc2)C1` [Compound 66]: the “APR8: difference between logarithms” value in assay [1] turned out to be 1. In addition, the values for the MIC in assay [2] and in assay [4] were 40 µg/mL (≈ 109 µM) and 80 µg/mL (≈ 219 µM), respectively.

(Values after patent US3933793A, “Therapeutically active 2-aminoalkylthio-3H-1.5-benzodiazepines and process for preparing them” (Recordati S.A. Chemical and Pharmaceutical Company, priority 1971, dated 1976).)
